Assay results taken from ChEMBL document CHEMBL4828736, “Discovery of ASTX029, A Clinical Candidate Which Modulates the Phosphorylation and Catalytic Activity of ERK1/2” (J Med Chem, 2021).

Tests used:
in vivo [1] = details: BALB/c, mouse, iv, 0.5 mg/kg
in vivo [2] = details: BALB/c, mouse, po, 5 mg/kg
in vivo [3] = details: BALB/c, mouse, po, 5 mg/kg; remark: listed apart in the source
in vivo [4] = details: BALB/c, mouse, iv, 0.5 mg/kg; remark: listed apart in the source
physchem = details: buffer, pH 7.4
in vitro [5] = details: human, microsomes
in vivo [6] = details: BALB/c, mouse, po, 5 mg/kg; remark: listed apart in the source
in vitro [7] = details: CD1, mouse, microsomes
COLO 205 = assay: cells; type: functional, cell-based; details: Homo sapiens, COLO 205, 96 h
CYP3A4 = CYP3A4 (Homo sapiens, UniProt P08684); assay: in vitro; details: recombinant enzyme
A-375 = assay: cells; type: functional, cell-based; details: Homo sapiens, A-375, 96 h
[8] = biological target: Mitogen-activated protein kinase 1 (Homo sapiens) (UniProt P28482); details: dose 1.0 nM, time 30.0 min
Chain of Mitogen-activated protein kinase 1 (Homo sapiens) (P28482 whole entry): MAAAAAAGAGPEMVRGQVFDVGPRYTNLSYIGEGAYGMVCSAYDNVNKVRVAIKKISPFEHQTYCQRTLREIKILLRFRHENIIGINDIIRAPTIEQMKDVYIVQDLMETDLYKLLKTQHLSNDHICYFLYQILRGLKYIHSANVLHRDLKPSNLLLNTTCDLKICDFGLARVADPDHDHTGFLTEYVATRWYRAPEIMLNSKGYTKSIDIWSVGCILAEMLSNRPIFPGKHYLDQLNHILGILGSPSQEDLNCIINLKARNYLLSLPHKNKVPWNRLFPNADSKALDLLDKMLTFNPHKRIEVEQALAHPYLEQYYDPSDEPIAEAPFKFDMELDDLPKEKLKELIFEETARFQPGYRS

Chain of CYP3A4 (P08684 whole entry): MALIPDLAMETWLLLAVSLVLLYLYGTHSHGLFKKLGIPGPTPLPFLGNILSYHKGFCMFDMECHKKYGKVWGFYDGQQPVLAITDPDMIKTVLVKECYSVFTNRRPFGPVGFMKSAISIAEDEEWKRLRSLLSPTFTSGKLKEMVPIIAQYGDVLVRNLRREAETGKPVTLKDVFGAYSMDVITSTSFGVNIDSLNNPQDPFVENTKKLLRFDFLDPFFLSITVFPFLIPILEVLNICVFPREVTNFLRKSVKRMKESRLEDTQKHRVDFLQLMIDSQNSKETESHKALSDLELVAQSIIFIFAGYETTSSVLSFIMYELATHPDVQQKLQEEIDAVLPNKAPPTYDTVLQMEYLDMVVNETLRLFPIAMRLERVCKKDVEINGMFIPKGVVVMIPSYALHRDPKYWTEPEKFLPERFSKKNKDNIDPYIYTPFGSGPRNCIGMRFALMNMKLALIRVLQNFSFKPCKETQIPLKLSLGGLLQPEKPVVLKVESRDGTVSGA

clearance at 24 h (in vivo [1]) [mL/min/kg] | half-life at 24 h (in vivo [2]) [min] | bioavailability at 24 h (in vivo [3]) [%] | Vd at 24 h (in vivo [4]) [L/kg] | chromatographic logD (physchem) | half-life at 40 min, 1 µM (in vitro [5]) [min] | AUC at 24 h (in vivo [6]) [ng·h/mL] | half-life at 40 min, 1 µM (in vitro [7]) [min] | IC50 (COLO 205) [nM] | half-life at 40 min, 1 µM (CYP3A4) [min] | IC50 (A-375) [nM] | inhibition [8] [%] | SMILES
8.3 | 90 | 64 | 0.46 | 3.7 | 26 | 6400 | 26 | 15 | 19 | – | – | COc1cc(F)cc([C@@H](CO)NC(=O)[C@@H](C)N2Cc3ccc(-c4nc(Nc5cnn(C)n5)ncc4Cl)cc3C2=O)c1
6.8 | 90 | 20 | 0.26 | 3 | 33 | 2400 | 120 | – | – | – | – | COc1cc([C@@H](CO)NC(=O)[C@@H](C)N2Cc3ccc(-c4nc(NC5CCOCC5)ncc4Cl)cc3C2=O)ccn1
– | – | – | – | 3.9 | 12 | – | 31 | – | – | – | – | Cc1cccc([C@@H](CO)NC(=O)[C@@H](C)N2Cc3ccc(-c4nc(NC5CCOCC5)ncc4Cl)cc3C2=O)c1
13 | 66 | 13 | 0.52 | 3.3 | 23 | 824 | 35 | 10 | 13 | – | – | COc1cc(F)cc([C@@H](CO)NC(=O)[C@@H](C)N2Cc3ccc(-c4nc(Nc5ccnn5C)ncc4Cl)cc3C2=O)c1
– | – | – | – | – | 27 | – | 100 | – | – | – | – | COc1cccc([C@@H](CO)NC(=O)[C@@H](C)N2Cc3ccc(-c4nc(NC5CCOCC5)ncc4Cl)cc3C2=O)c1
54 | 90 | 10 | 1.4 | 3.3 | 31 | 150 | 86 | – | – | 4 | – | COc1cc(F)cc([C@@H](CO)NC(=O)CN2Cc3ccc(-c4nc(NC5CCOCC5)ncc4Cl)cc3C2=O)c1
9.4 | 102 | 30 | 0.71 | 3.3 | 29 | 2650 | – | 12 | 50 | – | 49 | COc1cc(F)cc([C@@H](CO)NC(=O)[C@@H](C)N2Cc3ccc(-c4nc(NC5COC5)ncc4Cl)cc3C2=O)c1
19 | 84 | 10 | 0.45 | 4.7 | 17 | 440 | 28 | – | 28 | – | – | O=C(CN1Cc2ccc(-c3nc(NC4CCOCC4)ncc3Cl)cc2C1=O)N1CCc2ccccc2CC1
4.6 | 60 | 23 | 0.56 | 4.2 | 25 | 4100 | 31 | – | 27 | – | – | COc1cc(F)cc([C@@H](CO)NC(=O)[C@@H](C)N2Cc3ccc(-c4nc(Nc5ccnc(OC)c5)ncc4Cl)cc3C2=O)c1
– | – | – | – | – | 22 | – | – | – | 7.3 | – | – | COc1cc(F)cc([C@@H](CO)NC(=O)CN2C(=O)c3cc(-c4nc(NC5CCOCC5)ncc4Cl)ccc3[C@H]2C)c1
11 | 150 | 41 | 0.55 | 3 | 40 | 3000 | 65 | – | – | – | – | Cc1cccc([C@@H](CO)NC(=O)CN2Cc3ccc(-c4nc(NC5CCOCC5)ncc4Cl)cc3C2=O)c1
